Assay: The compound was tested for affinity towards sigma-3 receptor

IC50 [nM] | SMILES
13 | CCCN(CCC)C1Cc2ccccc2C(c2ccccc2)C1 (stereo not given)
2.2 | CCN(CC)C1Cc2ccccc2C(c2ccccc2)C1 (trans isomer)
59 | CCCNC1Cc2ccccc2C(c2ccccc2)C1 (stereo not given)
79 | CNC1Cc2ccccc2C(c2ccccc2)C1 (stereo not given)
4.5 | CCCN(C)C1Cc2ccccc2C(c2ccccc2)C1 (stereo not given)

— BindingDB's records for doi:10.1021/jm00050a008 (University of North Carolina, 1995)
